Results on 34 compounds are retold here after patent US20250136553A1, “ACYLSULFONAMIDE KAT6A INHIBITORS” (Olema Pharmaceuticals, Inc., priority 2023, published 2025).

SMILES strings stand for the structures.

Chain of human-KAT6A (MYST domain 507-778 aa) (Q92794 507-778): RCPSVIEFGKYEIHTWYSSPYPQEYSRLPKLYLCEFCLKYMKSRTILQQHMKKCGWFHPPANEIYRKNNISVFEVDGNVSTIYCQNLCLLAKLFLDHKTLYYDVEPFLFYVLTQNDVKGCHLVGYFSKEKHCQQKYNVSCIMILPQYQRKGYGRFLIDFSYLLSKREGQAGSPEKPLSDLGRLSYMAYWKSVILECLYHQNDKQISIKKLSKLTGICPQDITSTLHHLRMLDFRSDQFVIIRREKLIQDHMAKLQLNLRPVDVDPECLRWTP

The first experiment addresses human-KAT6A (MYST domain 507-778 aa) (Homo sapiens (Human), UniProt Q92794). Put plainly: KAT6A biochemical assay (TR-FRET). The note with it: @ 1 μM; reported where IC50 could not be determined; read-out: Percent inhibition at specific concentration (KAT6A). Put shortly:
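KAT6A MYST domain preincubated with compound 30 min at 25° C, then reacted 60 min at 25° C with 200 nM biotin-H4 peptide and 600 nM acetyl-CoA (final). Europium anti-acetyl-lysine/streptavidin-APC TR-FRET read (Ex 340, Em 615/665 nm); % inhibition from 665/615 ratio, IC50 by sigmoidal fit.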
Regarding `COc1nc(C(=O)N[S@](=N)(=O)c2ccccc2F)ccc1Cn1cccn1` [Compound 307b, (S)-5-((1H-pyrazol-1-yl)methyl)-N-(2-fluorophenylsulfonimidoyl)-6-methoxypicolinamide], the inhibition at 1 µM came to 46%.

Staying with this experiment, now noted: TR-FRET; histone H4 peptide 200 nM, acetyl-CoA 600 nM; read-out: KAT6A IC50.
Turning to `COc1ccc(Cl)c(OC)c1[S@@](=N)(=O)NC(=O)c1ccc(Cn2cccn2)c(OC)n1` [Compound 293b, (S)-5-((1H-pyrazol-1-yl)methyl)-N-(3-chloro-2,6-dimethoxyphenylsulfonimidoyl)-6-methoxypicolinamide], the half-inhibitory concentration (IC50) (usually the concentration that inhibits the measured activity by half) was 16 nM.

In the case of `CCOc1cccc(OC)c1[S@](=N)(=O)NC(=O)c1ccc(Cn2cccn2)c(OC)n1` [Compound 294a, (R)-5-((1H-pyrazol-1-yl)methyl)-N-(2-ethoxy-6-methoxyphenylsulfonimidoyl)-6-methoxypicolinamide], the IC50 worked out at 271 nM.

`CCOc1cccc(OC)c1[S@@](=N)(=O)NC(=O)c1ccc(Cn2cccn2)c(OC)n1` [Compound 294b, (S)-5-((1H-pyrazol-1-yl)methyl)-N-(2-ethoxy-6-methoxyphenylsulfonimidoyl)-6-methoxypicolinamide]: the IC50 worked out at 22 nM.

Turning to `COc1cc(C(=O)N[S@@](=N)(=O)c2c(OC)cccc2OC)ccc1Cn1cccn1` [Compound 295a, (R)-4-((1H-pyrazol-1-yl)methyl)-N-(2,6-dimethoxyphenylsulfonimidoyl)-3-methoxybenzamide], the IC50 turned out to be 16 nM.

`COc1cc(C(=O)N[S@](=N)(=O)c2c(OC)cccc2OC)ccc1Cn1cccn1` [Compound 295b, (S)-4-((1H-pyrazol-1-yl)methyl)-N-(2,6-dimethoxyphenylsulfonimidoyl)-3-methoxybenzamide]: the IC50 stood at 271 nM.

For the compound `COc1cc(OC)c([S@](=N)(=O)NC(=O)c2ccc(Cn3cccn3)c(OC)n2)c(OC)c1` [Compound 296a, (R)-5-((1H-pyrazol-1-yl)methyl)-6-methoxy-N-(2,4,6-trimethoxyphenylsulfonimidoyl)picolinamide], the half-inhibitory concentration (IC50) was found to be 16 nM.

Regarding `COc1cc(OC)c([S@@](=N)(=O)NC(=O)c2ccc(Cn3cccn3)c(OC)n2)c(OC)c1` [Compound 296b, (S)-5-((1H-pyrazol-1-yl)methyl)-6-methoxy-N-(2,4,6-trimethoxyphenylsulfonimidoyl)picolinamide], the half-maximal inhibitory concentration (IC50) was determined as 677 nM.

With `COc1cccc(OC2CCC2)c1[S@](=N)(=O)NC(=O)c1ccc(Cn2cccn2)c(OC)n1` [Compound 298a, (R)-5-((1H-pyrazol-1-yl)methyl)-N-(2-cyclobutoxy-6-methoxyphenylsulfonimidoyl)-6-methoxypicolinamide], the IC50 was 23 nM.

As to `COc1cccc(OC2CCC2)c1[S@@](=N)(=O)NC(=O)c1ccc(Cn2cccn2)c(OC)n1` [Compound 298b, (S)-5-((1H-pyrazol-1-yl)methyl)-N-(2-cyclobutoxy-6-methoxyphenylsulfonimidoyl)-6-methoxypicolinamide], the IC50 was 511 nM.

Consider `COc1cc(OC)c([S@](=N)(=O)NC(=O)c2ccc(Cn3cccn3)c(OC)c2)c(OC)c1` [Compound 299a, (R)-4-((1H-pyrazol-1-yl)methyl)-3-methoxy-N-(2,4,6-trimethoxyphenylsulfonimidoyl)benzamide], for which the half-maximal inhibitory concentration (IC50) was 15 nM.

With `COc1cc(OC)c([S@@](=N)(=O)NC(=O)c2ccc(Cn3cccn3)c(OC)c2)c(OC)c1` [Compound 299b, (S)-4-((1H-pyrazol-1-yl)methyl)-3-methoxy-N-(2,4,6-trimethoxyphenylsulfonimidoyl)benzamide], the 50% inhibitory concentration (IC50) was 226 nM.

For the compound `COc1cccc(OC)c1[S@](=N)(=O)NC(=O)c1ccc(Cn2cccn2)c(OC(F)(F)F)c1` [Compound 300a, (R)-4-((1H-pyrazol-1-yl)methyl)-N-(2,6-dimethoxyphenylsulfonimidoyl)-3-(trifluoromethoxy)benzamide], the concentration for half-maximal inhibition (IC50) amounted to 125 nM.

Turning to `COc1cccc(OC)c1[S@@](=N)(=O)NC(=O)c1ccc(Cn2cccn2)c(OC(F)(F)F)c1` [Compound 300b, (S)-4-((1H-pyrazol-1-yl)methyl)-N-(2,6-dimethoxyphenylsulfonimidoyl)-3-(trifluoromethoxy)benzamide], the IC50 came out at 18 nM.

With `COc1ccc(C)c(OC)c1[S@](=N)(=O)NC(=O)c1ccc(Cn2cccn2)c(OC)n1` [Compound 301a, (R)-5-((1H-pyrazol-1-yl)methyl)-N-(2,6-dimethoxy-3-methylphenylsulfonimidoyl)-6-methoxypicolinamide], the half-inhibitory concentration (IC50) was 313 nM.

Regarding `COc1ccc(C)c(OC)c1[S@@](=N)(=O)NC(=O)c1ccc(Cn2cccn2)c(OC)n1` [Compound 301b, (S)-5-((1H-pyrazol-1-yl)methyl)-N-(2,6-dimethoxy-3-methylphenylsulfonimidoyl)-6-methoxypicolinamide], the IC50 stood at 17 nM.

In the case of `COc1cc(C(=O)N[S@@](=N)(=O)c2c(OC)ccc(Cl)c2OC)ccc1Cn1cccn1` [Compound 302a, (R)-4-((1H-pyrazol-1-yl)methyl)-N-(3-chloro-2,6-dimethoxyphenylsulfonimidoyl)-3-methoxybenzamide], the IC50 amounted to 21 nM.

For `COc1cc(C(=O)N[S@](=N)(=O)c2c(OC)ccc(Cl)c2OC)ccc1Cn1cccn1` [Compound 302b, (S)-4-((1H-pyrazol-1-yl)methyl)-N-(3-chloro-2,6-dimethoxyphenylsulfonimidoyl)-3-methoxybenzamide], the IC50 stood at 304 nM.

As to `COc1nc(C(=O)N[S@@](=N)(=O)c2cccc3c2OCC3)ccc1Cn1cccn1` [Compound 303a, (R)-5-((1H-pyrazol-1-yl)methyl)-N-(2,3-dihydrobenzofuran-7-sulfonimidoyl)-6-methoxypicolinamide], the half-maximal inhibitory concentration (IC50) was determined as 26 nM.

For `COc1nc(C(=O)N[S@](=N)(=O)c2cccc3c2OCC3)ccc1Cn1cccn1` [Compound 303b, (S)-5-((1H-pyrazol-1-yl)methyl)-N-(2,3-dihydrobenzofuran-7-sulfonimidoyl)-6-methoxypicolinamide], the half-maximal inhibitory concentration (IC50) was determined as 108 nM.

With `COc1cc(C(=O)N[S@@](=N)(=O)c2c(OC)ccc(C)c2OC)ccc1Cn1cccn1` [Compound 304a, (R)-4-((1H-pyrazol-1-yl)methyl)-N-(2,6-dimethoxy-3-methylphenylsulfonimidoyl)-3-methoxybenzamide], the IC50 was found to be 18 nM.

Take `COc1cc(C(=O)N[S@](=N)(=O)c2c(OC)ccc(C)c2OC)ccc1Cn1cccn1` [Compound 304b, (S)-4-((1H-pyrazol-1-yl)methyl)-N-(2,6-dimethoxy-3-methylphenylsulfonimidoyl)-3-methoxybenzamide]: the concentration for half-maximal inhibition (IC50) came out at 130 nM.

Consider `COc1cccc(F)c1[S@](=N)(=O)NC(=O)c1ccc(Cn2cccn2)c(OC)n1` [Compound 305a, (R)-5-((1H-pyrazol-1-yl)methyl)-N-(2-fluoro-6-methoxyphenylsulfonimidoyl)-6-methoxypicolinamide], for which the IC50 came to 15 nM.

In the case of `COc1cccc(F)c1[S@@](=N)(=O)NC(=O)c1ccc(Cn2cccn2)c(OC)n1` [Compound 305b, (S)-5-((1H-pyrazol-1-yl)methyl)-N-(2-fluoro-6-methoxyphenylsulfonimidoyl)-6-methoxypicolinamide], the half-inhibitory concentration (IC50) is 318 nM.

Take `COc1cc(C)cc(OC)c1[S@](=N)(=O)NC(=O)c1ccc(Cn2cccn2)c(OC)n1` [Compound 306a, (R)-5-((1H-pyrazol-1-yl)methyl)-N-(2,6-dimethoxy-4-methylphenylsulfonimidoyl)-6-methoxypicolinamide]: the half-inhibitory concentration (IC50) was determined as 12 nM.

Take `COc1cc(C)cc(OC)c1[S@@](=N)(=O)NC(=O)c1ccc(Cn2cccn2)c(OC)n1` [Compound 306b, (S)-5-((1H-pyrazol-1-yl)methyl)-N-(2,6-dimethoxy-4-methylphenylsulfonimidoyl)-6-methoxypicolinamide]: the concentration for half-maximal inhibition (IC50) was determined as 280 nM.

`COc1nc(C(=O)N[S@@](=N)(=O)c2ccccc2F)ccc1Cn1cccn1` [Compound 307a, (R)-5-((1H-pyrazol-1-yl)methyl)-N-(2-fluorophenylsulfonimidoyl)-6-methoxypicolinamide]: the IC50 was 108 nM.

`COc1nc(C(=O)N[S@@](=N)(=O)c2c(F)cccc2F)ccc1Cn1cccn1` [Compound 308a, (R)-5-((1H-pyrazol-1-yl)methyl)-N-(2,6-difluorophenylsulfonimidoyl)-6-methoxypicolinamide]: the IC50 was found to be 1580 nM.

Regarding `COc1nc(C(=O)N[S@](=N)(=O)c2c(F)cccc2F)ccc1Cn1cccn1` [Compound 308b, (S)-5-((1H-pyrazol-1-yl)methyl)-N-(2,6-difluorophenylsulfonimidoyl)-6-methoxypicolinamide], the IC50 amounted to 49 nM.

Regarding `COc1cc(C(=O)NS(=O)(=O)c2cc(Cl)cc3c2OCC3)ccc1Cn1cccn1` [Compound 309, 4-((1H-pyrazol-1-yl)methyl)-N-((5-chloro-2,3-dihydrobenzofuran-7-yl)sulfonyl)-3-methoxybenzamide], the IC50 was 17 nM.

`COc1cc(C(=O)NS(=O)(=O)c2ccc3c(c2)CCO3)ccc1Cn1cccn1` [Compound 310, 4-((1H-pyrazol-1-yl)methyl)-N-((2,3-dihydrobenzofuran-5-yl)sulfonyl)-3-methoxybenzamide]: the IC50 is 112 nM.

As for `COc1ccc(S(=O)(=O)NC(=O)c2ccc(Cn3cccn3)c(OC)c2)cc1Cl` [Compound 311, 4-((1H-pyrazol-1-yl)methyl)-N-((3-chloro-4-methoxyphenyl)sulfonyl)-3-methoxybenzamide], the IC50 was determined as 135 nM.

In the case of `COc1cc(C(=O)NS(=O)(=O)c2ccccc2OC2CC2)ccc1Cn1cccn1` [Compound 313, 4-((1H-pyrazol-1-yl)methyl)-N-((2-cyclopropoxyphenyl)sulfonyl)-3-methoxybenzamide], the half-maximal inhibitory concentration (IC50) is 32 nM.

Take `COc1cc(C(=O)NS(=O)(=O)c2cccc3c2OC(C)C3)ccc1Cn1cccn1` (stereo not shown) [Compound 314, 4-((1H-pyrazol-1-yl)methyl)-3-methoxy-N-((2-methyl-2,3-dihydrobenzofuran-7-yl)sulfonyl)benzamide]: the IC50 stood at 13 nM.
